Measured values from patent publication US10822348B2, “Inhibitors of Bruton's tyrosine kinase and methods of their use” (JANSSEN PHARMACEUTICA NV, priority 2015, dated 2020).

Biological target: unphosphorylated-BTK kinase domain (UP-BTK), GST-tagged human BTK (389-659aa) (Homo sapiens (Human), UniProt Q06187)
Test: BTK kinase Lanthascreen binding assay
Settings: 60 minutes incubation
Protocol: BTK Kinase Lanthascreen Binding Assay:
A BTK kinase lanthascreen binding assay monitors compound binding to unphosphorylated-BTK kinase domain (UP-BTK), by competing with a fluorescent labeled tracer. […] Data were analyzed using Xlfit™ version 5.3 from ID Business Solutions (Guildford), Microsoft Excel add-in. pIC50 refers to the negative log of the IC50 in molar.

[1] = negative log of the IC50 in molar, 50 nM Tracer 236
[2] = unphosphorylated-BTK kinase domain, pIC50 = negative log of the IC50 in molar

Chain of unphosphorylated-BTK kinase domain (UP-BTK), GST-tagged human BTK (389-659aa) (Q06187 389-659): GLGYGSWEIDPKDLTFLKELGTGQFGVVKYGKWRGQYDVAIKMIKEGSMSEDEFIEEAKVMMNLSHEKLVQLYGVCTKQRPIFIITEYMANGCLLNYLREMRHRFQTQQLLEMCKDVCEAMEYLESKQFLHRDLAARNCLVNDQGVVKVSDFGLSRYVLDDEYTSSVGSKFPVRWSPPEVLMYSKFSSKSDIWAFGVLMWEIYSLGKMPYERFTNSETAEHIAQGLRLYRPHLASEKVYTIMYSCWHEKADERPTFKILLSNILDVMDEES

BTK_I_binding pIC50 [1]	BTK_I_binding pIC50 [2]	Compound
7.4		Cc1cc(Oc2ccccc2)ccc1N1C(=O)Nc2c(C(=O)N[C@@H]3CCN(C)C3)sc3nccc1c23 (single isomer, unassigned) [Example 147, (R)-5-(*S)-(2-Methyl-4-phenoxyphenyl)-N-(1-methylpyrrolidin-3-yl)-4-oxo-4,5-dihydro-3H-1-thia-3,5,8-triazaacenaphthylene-2-carboxamide]
6.4		C=CC(=O)N1CC[C@@H](NC(=O)c2sc3nccc4c3c2NC(=O)N4c2ccc(Oc3ccccc3)cc2C)C1 (single isomer, unassigned) [Example 169, (R)—N-(1-Acryloylpyrrolidin-3-yl)-5-(*R)-(2-methyl-4-phenoxyphenyl)-4-oxo-4,5-dihydro-3H-1-thia-3,5,8-triazaacenaphthylene-2-carboxamide]
6.3		Cc1cc(Oc2ccccc2)ccc1N1C(=O)Nc2c(C(=O)N[C@H]3CCCOC3)sc3nccc1c23 (single isomer, unassigned) [Example 267, (S)-5-(*R)-(2-Methyl-4-phenoxyphenyl)-4-oxo-N-(tetrahydro-2H-pyran-3-yl)-4,5-dihydro-3H-1-thia-3,5,8-triazaacenaphthylene-2-carboxamide]
	6.2	Cc1cc(Oc2ccccc2)ccc1N1C(=O)Nc2c(C(=O)N[C@@H]3CCCN(C(=O)CN(C)C)C3)sc3nccc1c23 (single isomer, unassigned) [Example 287, (R)—N-(1-(2-(Dimethylamino)acetyl)piperidin-3-yl)-5-(*R)-(2-methyl-4-phenoxyphenyl)-4-oxo-4,5-dihydro-3H-1-thia-3,5,8-triazaacenaphthylene-2-carboxamide]
	6.2	C=CC(=O)N1CCC[C@H](NC(=O)c2sc3nccc4c3c2NC(=O)N4c2ccc(Oc3ccccc3)cc2C)C1 (single isomer, unassigned) [Example 289, (S)—N-(1-Acryloylpiperidin-3-yl)-5-(*R)-(2-methyl-4-phenoxyphenyl)-4-oxo-4,5-dihydro-3H-1-thia-3,5,8-triazaacenaphthylene-2-carboxamide]
	6.1	CNC/C=C/C(=O)N1CCC[C@@H](NC(=O)c2sc3nccc4c3c2NC(=O)N4c2ccc(Oc3ccccc3)cc2C)C1 (single isomer, unassigned) [Example 292, (R,E)-5-(*R)-(2-Methyl-4-phenoxyphenyl)-N-(1-(4-(methylamino)but-2-enoyl)piperidin-3-yl)-4-oxo-4,5-dihydro-3H-1-thia-3,5,8-triazaacenaphthylene-2-carboxamide]
	6.0	Cc1cc(Oc2ccccc2)ccc1N1C(=O)Nc2c(C(=O)N[C@@H]3CCCOC3)sc3nccc1c23 (single isomer, unassigned) [Example 307, (R)-5-(*R)-(2-Methyl-4-phenoxyphenyl)-4-oxo-N-(tetrahydro-2H-pyran-3-yl)-4,5-dihydro-3H-1-thia-3,5,8-triazaacenaphthylene-2-carboxamide]
	5.7	Cc1cc(Oc2ccccc2)ccc1N1C(=O)Nc2c(C(=O)N[C@@H]3CCCN(C#N)C3)sc3nccc1c23 (single isomer, unassigned) [Example 329, (R)—N-(1-Cyanopiperidin-3-yl)-5-(*R)-(2-methyl-4-phenoxyphenyl)-4-oxo-4,5-dihydro-3H-1-thia-3,5,8-triazaacenaphthylene-2-carboxamide]
	7.1	C=C(Cl)C(=O)N1CCC[C@@H](NC(=O)c2sc3nccc4c3c2NC(=O)N4c2ccc(Oc3ccccc3)cc2C)C1 (single isomer, unassigned) [Example 366, (R)—N-(1-(2-Chloroacryloyl)piperidin-3-yl)-5-(*S)-(2-methyl-4-phenoxyphenyl)-4-oxo-4,5-dihydro-3H-1-thia-3,5,8-triazaacenaphthylene-2-carboxamide]
	6.2	Cc1cc(Oc2ccccc2)ccc1N1C(=O)Nc2c(C(=O)N[C@@H]3CCCN(C(=O)/C=C/CN)C3)sc3nccc1c23 (single isomer, unassigned) [Example 367, (R,E)-N-(1-(4-Aminobut-2-enoyl)piperidin-3-yl)-5-(*R)-(2-methyl-4-phenoxyphenyl)-4-oxo-4,5-dihydro-3H-1-thia-3,5,8-triazaacenaphthylene-2-carboxamide]
	7.8	CCOC(C)(C)/C=C(\C#N)C(=O)N1CCC[C@@H](NC(=O)c2sc3nccc4c3c2NC(=O)N4c2ccc(Oc3ccccc3)cc2C)C1 (single isomer, unassigned) [Example 478, (R,*E)-N-(1-(2-Cyano-4-ethoxy-4-methylpent-2-enoyl)piperidin-3-yl)-5-(*S)-(2-methyl-4-phenoxyphenyl)-4-oxo-4,5-dihydro-3H-1-thia-3,5,8-triazaacenaphthylene-2-carboxamide]

Second part, the compound before the results:

Compound	BTK_I_binding pIC50 [1]	BTK_I_binding pIC50 [2]
Cc1cc(Oc2ccccc2)ccc1N1C(=O)Nc2c(C(=O)N[C@@H]3CCCN(C(=O)/C(C#N)=C/C(C)(C)N4CCOCC4)C3)sc3nccc1c23 (single isomer, unassigned) [Example 112, (R,E)-N-(1-(2-Cyano-4-methyl-4-morpholinopent-2-enoyl)piperidin-3-yl)-5-(*R)-(2-methyl-4-phenoxyphenyl)-4-oxo-4,5-dihydro-3H-1-thia-3,5,8-triazaacenaphthylene-2-carboxamide]	6.9	
Cc1cc(Oc2ccccc2)ccc1N1C(=O)Nc2c(C(=O)N[C@@H]3CCCN(C)C3)sc3nccc1c23 (single isomer, unassigned) [Example 127, (R)-5-(*S)-(2-Methyl-4-phenoxyphenyl)-N-(1-methylpiperidin-3-yl)-4-oxo-4,5-dihydro-3H-1-thia-3,5,8-triazaacenaphthylene-2-carboxamide]	7.3	
Cc1cc(Oc2ccccc2)ccc1N1C(=O)Nc2c(C(=O)N[C@@H]3CCCN(C)C3)sc3nccc1c23 (single isomer, unassigned) [Example 180, (R)-5-(*R)-(2-Methyl-4-phenoxyphenyl)-N-(1-methylpiperidin-3-yl)-4-oxo-4,5-dihydro-3H-1-thia-3,5,8-triazaacenaphthylene-2-carboxamide]	6.0	
N#C/C(=C\C1CC1)C(=O)N1CCC[C@@H](NC(=O)c2sc3nccc4c3c2NC(=O)N4c2c(Cl)ccc3c2OCO3)C1 (single isomer, unassigned) [Example 239]	7.4	
Cc1cc(Oc2ccccc2)ccc1N1C(=O)Nc2c(C(=O)N[C@H]3CCCN(C)C3)sc3nccc1c23 (single isomer, unassigned) [Example 249, (S)-5-(*S)-(2-Methyl-4-phenoxyphenyl)-N-(1-methylpiperidin-3-yl)-4-oxo-4,5-dihydro-3H-1-thia-3,5,8-triazaacenaphthylene-2-carboxamide]	6.6	
Cc1cc(Oc2ccccc2)ccc1N1C(=O)Nc2c(C(=O)N[C@@H]3CCCNC3)sc3nccc1c23 (single isomer, unassigned) [Example 300, (R)-5-(*R)-(2-methyl-4-phenoxyphenyl)-4-oxo-N-(piperidin-3-yl)-4,5-dihydro-3H-1-thia-3,5,8-triazaacenaphthylene-2-carboxamide]		6.0
C=CC(=O)N1CCC[C@@H](NC(=O)c2sc3nccc4c3c2NC(=O)N4c2c(Cl)ccc3c2OCO3)C1 (single isomer, unassigned) [Example 321, (R)—N-(1-Acryloylpiperidin-3-yl)-5-(*R)-(5-chlorobenzo[d][1,3]dioxol-4-yl)-4-oxo-4,5-dihydro-3H-1-thia-3,5,8-triazaacenaphthylene-2-carboxamide]		7.1
Cc1cc(Oc2ccccc2)ccc1N1C(=O)Nc2c(C(=O)N[C@H]3CCCN(C)C3)sc3nccc1c23 (single isomer, unassigned) [Example 339, (S)-5-(*R)-(2-Methyl-4-phenoxyphenyl)-N-(1-methylpiperidin-3-yl)-4-oxo-4,5-dihydro-3H-1-thia-3,5,8-triazaacenaphthylene-2-carboxamide]		5.4
Cc1cc(OC2CCOCC2)ccc1N1C(=O)Nc2c(C(=O)N[C@@H]3CCCN(C)C3)sc3nccc1c23 (single isomer, unassigned) [Example 343, (R)-5-(*R)-(2-Methyl-4-((tetrahydro-2H-pyran-4-yl)oxy)phenyl)-N-(1-methylpiperidin-3-yl)-4-oxo-4,5-dihydro-3H-1-thia-3,5,8-triazaacenaphthylene-2-carboxamide]		5.3
CN1CCC[C@@H](NC(=O)c2sc3nccc4c3c2NC(=O)N4c2c(Cl)ccc3c2OCO3)C1 (single isomer, unassigned) [Example 353, (R)-5-(*R)-(5-Chlorobenzo[d][1,3]dioxol-4-yl)-N-(1-methylpiperidin-3-yl)-4-oxo-4,5-dihydro-3H-1-thia-3,5,8-triazaacenaphthylene-2-carboxamide]		5.8
C=CC(=O)N1CCC[C@@H](NC(=O)c2sc3nccc4c3c2NC(=O)N4c2ccc(OC(C)C)cc2C)C1 (single isomer, unassigned) [Example 417, (R)—N-(1-Acryloylpiperidin-3-yl)-5-(*S)-(4-isopropoxy-2-methylphenyl)-4-oxo-4,5-dihydro-3H-1-thia-3,5,8-triazaacenaphthylene-2-carboxamide]		5.9
C=CC(=O)N1CCC[C@@H](NC(=O)c2sc3nccc4c3c2NC(=O)N4c2ccc(OC(C)C)cc2C)C1 (single isomer, unassigned) [Example 418, (R)—N-(1-Acryloylpiperidin-3-yl)-5-(*R)-(4-isopropoxy-2-methylphenyl)-4-oxo-4,5-dihydro-3H-1-thia-3,5,8-triazaacenaphthylene-2-carboxamide]		7.8
